In article PMC10180155, “Thieno-Thiazolostilbenes, Thienobenzo-Thiazoles, and Naphtho-Oxazoles: Computational Study and Cholinesterase Inhibitory Activity” (Molecules, 2023):

Tests used:
[1] = biological target: T1, BChE (EC 3.1.1.8, equine serum) (Equus caballus, UniProt P81908); assay: biochemical; assay type: biochemical; details: for Inhibition (%) BChE: concentration for the maximal effect measured
T1 construct: BChE (EC 3.1.1.8, equine serum); purchased Sigma-Aldrich; host or cells: equine serum
Method: (§1) AChE and BChE inhibition were determined using a modified spectrophotometric Ellman’s method. Acetylthiocholine iodide (ATChI), S-butyrylthiocholine iodide (BTChI), AChE (EC 3.1.1.7, Electrophorus electricus, Type: V-S), BChE (EC 3.1.1.8, equine serum), and Trisma base were purchased from Sigma-Aldrich (St. Louis, MO, USA), while Ellman’s reagent 5,50-dithiobis-(2-nitrobenzoic acid) (DTNB) was purchased from Zwijndrecht (Antwerpen, Belgium). The reaction mixture contained 180 µL Tris-HCl buffer (50 mM, pH 8.0) or phosphate buffer, 10 µL of the enzyme (final concentration 0.03 U/mL), 10 µL of the tested solution, and 10 μL of DTNB (final concentration 0.3 mM). The reaction started with adding 10 μL of ATChI/BTChI (final concentration of 0.5 mM). The developing yellow color was measured at 405 nm over 6 min at room temperature using a 96-well microplate reader (IRE 96, SFRI Medical Diagnostics, Bordeaux, France). The experiment was run in triplicate. The percentage of enzyme inhibition was calculated from measured data according to the equation: Inhibition (%) = [(Ac − AT)/A.C.]∙100, where A.C. is the enzyme activity without the test sample, and AT is the enzyme activity with the test sample, calculated as mean values ± standard deviation. In the control measurement, the tested compound was replaced by a buffer solution. Non-enzymatic hydrolysis was measured as blank for each measurement. The IC50 value was calculated by a nonlinear fit of compound concentration (log) values vs. response.

[2] = biological target: T2, AChE (EC 3.1.1.7, Electrophorus electricus, Type: V-S) (Electrophorus electricus, UniProt O42275); assay: AChE inhibition, modified spectrophotometric Ellman's method; assay type: biochemical
T2 construct: purchased Sigma-Aldrich Type: V-S
Method: as §1, with “The experiment was run in triplicate.” left out, “In the control measurement, the tested compound was replaced by a buffer solution.” left out

[3] = Solubility as observed in the cholinesterase measurements; assay type: physicochemical; details: did not allow measurements at higher concentrations
From the text: Tested compounds were active only toward BChE, and the results are presented in Table 2 and Figure 8 and Figure 9. Among stilbene derivatives, the best result is achieved by the derivative with a phenolic ring trans-8a and the thiophene derivative trans-1a (Table 2, Figure 9). […] Replacement of phenol from trans-8a with thiophene in trans-1a reduces the IC50 value by seven times. Replacing the methyl group from trans-1a with an isopropyl group in trans-2a (along with the inversion of the sulfur and nitrogen position) also reduces the activity. Furthermore, a change in geometry from trans-1a to cis-1a also diminished inhibitory activity, as was observed earlier.

T1 sequence (P81908 whole entry): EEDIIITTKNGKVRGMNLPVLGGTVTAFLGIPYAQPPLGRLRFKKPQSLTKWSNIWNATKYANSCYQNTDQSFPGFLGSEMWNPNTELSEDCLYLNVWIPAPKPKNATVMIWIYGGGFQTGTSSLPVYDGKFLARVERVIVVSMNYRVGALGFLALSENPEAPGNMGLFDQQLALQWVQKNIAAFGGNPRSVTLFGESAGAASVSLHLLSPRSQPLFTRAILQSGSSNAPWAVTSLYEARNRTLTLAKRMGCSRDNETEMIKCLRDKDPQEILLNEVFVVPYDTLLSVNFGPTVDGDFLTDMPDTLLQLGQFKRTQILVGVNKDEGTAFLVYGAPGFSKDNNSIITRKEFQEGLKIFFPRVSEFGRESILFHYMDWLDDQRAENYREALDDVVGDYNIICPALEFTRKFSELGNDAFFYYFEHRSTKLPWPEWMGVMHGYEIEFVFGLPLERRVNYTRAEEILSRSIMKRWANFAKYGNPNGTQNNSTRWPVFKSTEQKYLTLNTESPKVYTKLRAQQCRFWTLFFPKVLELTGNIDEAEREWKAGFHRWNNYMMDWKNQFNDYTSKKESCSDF
T2 sequence (O42275 24-633): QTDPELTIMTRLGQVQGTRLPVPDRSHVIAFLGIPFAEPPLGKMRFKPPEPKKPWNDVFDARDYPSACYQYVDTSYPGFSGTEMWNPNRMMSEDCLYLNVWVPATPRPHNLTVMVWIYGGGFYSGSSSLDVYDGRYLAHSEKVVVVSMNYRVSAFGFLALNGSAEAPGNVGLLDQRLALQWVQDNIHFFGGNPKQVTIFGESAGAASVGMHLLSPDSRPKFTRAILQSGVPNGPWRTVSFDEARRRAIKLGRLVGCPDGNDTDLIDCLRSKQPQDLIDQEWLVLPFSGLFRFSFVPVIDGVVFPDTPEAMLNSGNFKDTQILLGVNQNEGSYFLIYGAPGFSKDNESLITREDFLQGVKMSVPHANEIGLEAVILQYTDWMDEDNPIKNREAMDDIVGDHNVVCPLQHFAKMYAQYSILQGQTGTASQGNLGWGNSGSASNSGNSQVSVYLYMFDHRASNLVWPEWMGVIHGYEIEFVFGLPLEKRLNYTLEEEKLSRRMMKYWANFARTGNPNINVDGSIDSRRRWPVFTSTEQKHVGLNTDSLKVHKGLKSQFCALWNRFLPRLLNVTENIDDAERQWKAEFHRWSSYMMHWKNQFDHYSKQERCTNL

CC(C)c1nc2ccc3sccc3c2s1 [Compound 2, 2-isopropylthieno[3′,2′:3,4]benzo[1,2-d]thiazole]
inhibition at 200 µM ([1]; read-out: Inhibition (%) BChE): 46.8%

Cc1cccc2c1ccc1ncoc12 [Compound 13]
IC50 [1]: 351 µM
inhibition at 396.8 µM ([1]; read-out: Inhibition (%) BChE): 57.8%

(Z)-2-isopropyl-5-(2-(thiophen-2-yl)vinyl)thiazole [cis-2a]
Inhibition (%) BChE ([1]; 250 μM): 45.5 (250) %

CC(=O)Nc1nc2c(ccc3sccc32)s1 [Compound 5, N-(thieno[2′,3′:5,6]benzo[1,2-d]thiazol-2-yl)acetamide]
inhibition at 250 µM ([1]; read-out: Inhibition (%) BChE): 24.9%

(E)-2-isopropyl-5-(2-(thiophen-2-yl)vinyl)thiazole [trans-2a]
Inhibition (%) BChE ([1]; 250 μM): 45.8 (250) %

(E)-2-methyl-5-(2-(thiophen-2-yl)vinyl)thiazole [trans-1a]
IC50 [1]: 181 µM
Inhibition (%) BChE ([1]; 500 μM): 64.0 (500) %

Fc1ccc2ccc3ocnc3c2c1 [Compound 22]
IC50 [1]: 128 µM
inhibition at 315.8 µM ([1]; read-out: Inhibition (%) BChE): 69.9%

Cc1nc2ccc3ccc([N+](=O)[O-])cc3c2o1 [Compound 17]
inhibition at 159.5 µM ([1]; read-out: Inhibition (%) BChE): 16.8%

(Z)-2-methyl-5-(2-(thiophen-2-yl)vinyl)thiazole [cis-1a]
inhibitory activity toward BChE (in words) [1]: ineffective inhibitors
Inhibition (%) BChE ([1]; 500 μM): 36.4 (500) %

FC(F)(F)c1nc2c(ccc3sccc32)s1 [Compound 4, 2-(trifluoromethyl)thieno[2′,3′:5,6]benzo[1,2-d]thiazole]
IC50 [1]: 41.9 µM
inhibition at 200 µM ([1]; read-out: Inhibition (%) BChE): 70.8%

(E)-2-(2-(2-methylthiazol-5-yl)vinyl)phenol [trans-8a]
IC50 [1]: 25.2 µM
Inhibition (%) BChE ([1]; 250 μM): 80.5 (250) %

O=[N+]([O-])c1ccc2ccc3ncoc3c2c1 [Compound 16]
IC50 [1]: 137 µM
inhibition at 201.7 µM ([1]; read-out: Inhibition (%) BChE): 64.9%
IC50 [2]: 131 µM
inhibition at 201.7 µM ([2]; read-out: % of inhibition AChE): 63.8%

CN(C)c1ccc2ccc3ocnc3c2c1 [Compound 20]
IC50 [1]: 184 µM
inhibition at 364.2 µM ([1]; read-out: Inhibition (%) BChE): 82.2%

COc1ccc2ccc3nc(C)oc3c2c1 [Compound 19]
IC50 [1]: 170 µM
inhibition at 405.2 µM ([1]; read-out: Inhibition (%) BChE): 81.9%

Cc1ccc2ccc3nc(C)oc3c2c1 [Compound 15]
IC50 [1]: 44.4 µM
inhibition at 368.6 µM ([1]; read-out: Inhibition (%) BChE): 98.3%

CCC(C)Nc1ncc(/C=C/c2cccs2)s1 (stereo not drawn) [trans-9a, (E)-N-(sec-butyl)-5-(2-(thiophen-2-yl)vinyl)thiazol-2-amine]
inhibition at 100 µM ([1]; read-out: Inhibition (%) BChE): 47.7%
solubility (in words) [3]: limited solubility

Clc1ncc(/C=C/c2cccs2)s1 [trans-3a, (E)-2-chloro-5-(2-(thiophen-2-yl)vinyl)thiazole]
inhibitory activity toward BChE (in words) [1]: ineffective inhibitors
inhibition at 250 µM ([1]; read-out: Inhibition (%) BChE): 10%

Cc1ccc2ccc3ncoc3c2c1 [Compound 14]
IC50 [1]: 155 µM
inhibition at 173.6 µM ([1]; read-out: Inhibition (%) BChE): 63.3%

Cc1nc2c(ccc3sccc32)s1 [Compound 1, 2-methylthieno[2′,3′:5,6]benzo[1,2-d]thiazole]
IC50 [1]: 107 µM
inhibition at 500 µM ([1]; read-out: Inhibition (%) BChE): 79.1%

Clc1nc2c(ccc3sccc32)s1 [Compound 3, 2-chlorothieno[2′,3′:5,6]benzo[1,2-d]thiazole]
IC50 [1]: 51.1 µM
inhibition at 250 µM ([1]; read-out: Inhibition (%) BChE): 75.4%

N#Cc1cccc2c1ccc1ncoc12 [Compound 12]
inhibition at 176 µM ([1]; read-out: Inhibition (%) BChE): 40.9%

Cc1cccc2c1ccc1ocnc12 [Compound 23]
inhibition at 297.5 µM ([1]; read-out: Inhibition (%) BChE): 20.6%

Clc1nc(N2CCCC2)sc1/C=C/c1cccs1 [trans-10a, (E)-4-chloro-2-(pyrrolidin-1-yl)-5-(2-(thiophen-2-yl)vinyl)thiazole]
inhibition at 100 µM ([1]; read-out: Inhibition (%) BChE): 25.3%
solubility (in words) [3]: limited solubility

c1ccc2c(c1)ccc1ncoc12 [Compound 11]
inhibition at 188 µM ([1]; read-out: Inhibition (%) BChE): 0.9%

COc1ccc2ccc3ncoc3c2c1 [Compound 18]
inhibition at 273.6 µM ([1]; read-out: Inhibition (%) BChE): 38%

Clc1ccc2ccc3ocnc3c2c1 [Compound 21]
inhibition at 312.3 µM ([1]; read-out: Inhibition (%) BChE): 32.6%

CC(=O)Nc1ncc(C=Cc2cccs2)s1 (mixture of isomers) [Compound 5a, N-(5-(2-(thiophen-2-yl)vinyl)thiazol-2-yl)acetamide]
inhibitory activity toward BChE (in words) [1]: ineffective inhibitors
inhibition at 250 µM ([1]; read-out: Inhibition (%) BChE): 30.6%
